# Measured values: ChEMBL document CHEMBL3232804, “Synthesis and evaluation of new diaryl ether and quinoline hybrids as potential antiplasmodial and antimicrobial agents” (Bioorg Med Chem Lett, 2014)
# Experiments:
# Plasmodium falciparum [1] = experiment: Antiplasmodial activity against chloroquine-sensitive Plasmodium falciparum 3D7 infected after 72 hrs by Malaria SYBR Green I-staining based fluorescence assay; format: functional, organism-based; conditions: 3D7, 72 h
# Plasmodium falciparum [2] = experiment: Antiplasmodial activity against chloroquine-resistant Plasmodium falciparum K1 infected after 72 hrs by Malaria SYBR Green I-staining based fluorescence assay; format: functional, organism-based; conditions: K1, 72 h
# [3] = Selectivity index, ratio of IC50 for african green monkey Vero cells to IC50 for chloroquine-sensitive Plasmodium falciparum 3D7; format: toxicity, cell-based; conditions: read-out: Ratio IC50
# Escherichia coli = experiment: Antimicrobial activity against Escherichia coli ATCC 9637 after 24 hrs by standard broth microdilution method; format: functional; conditions: ATCC 9637, 24 h
# Pseudomonas aeruginosa = experiment: Antimicrobial activity against Pseudomonas aeruginosa ATCC BAA-427 after 24 hrs by standard broth microdilution method; format: functional; conditions: ATCC BAA-427, 24 h
# Staphylococcus aureus = experiment: Antimicrobial activity against Staphylococcus aureus ATCC 25923 after 24 hrs by standard broth microdilution method; format: functional; conditions: ATCC 25923, 24 h
# Klebsiella pneumoniae = experiment: Antimicrobial activity against Klebsiella pneumoniae ATCC 27736 after 24 hrs by standard broth microdilution method; format: functional; conditions: ATCC 27736, 24 h
# Candida albicans = experiment: Antifungal activity against Candida albicans clinical isolate after 24 to 48 hrs by standard broth microdilution method; format: functional
# Cryptococcus neoformans = experiment: Antifungal activity against Cryptococcus neoformans clinical isolate after 24 to 48 hrs by standard broth microdilution method; format: functional
# Sporothrix schenckii = experiment: Antifungal activity against Sporothrix schenckii clinical isolate after 72 to 96 hrs by standard broth microdilution method; format: functional
# [4] = tested on: Trichophyton mentagrophytes; experiment: Antifungal activity against Trichophyton mentagrophytes clinical isolate after 72 to 96 hrs by standard broth microdilution method; format: functional
# Aspergillus fumigatus = experiment: Antifungal activity against Aspergillus fumigatus clinical isolate after 72 to 96 hrs by standard broth microdilution method; format: functional
# Candida parapsilosis = experiment: Antifungal activity against Candida parapsilosis ATCC […] after 72 to 96 hrs by standard broth microdilution method; format: functional; conditions: Lodderomyces parapsilosis
Compound,IC50 (Plasmodium falciparum [1]) [nM],IC50 (Plasmodium falciparum [2]) [nM],selectivity ratio [3],MIC (Escherichia coli) [µg/mL],MIC (Pseudomonas aeruginosa) [µg/mL],MIC (Staphylococcus aureus) [µg/mL],MIC (Klebsiella pneumoniae) [µg/mL],MIC (Candida albicans) [µg/mL],MIC (Cryptococcus neoformans) [µg/mL],MIC (Sporothrix schenckii) [µg/mL],MIC [4] [µg/mL],MIC (Aspergillus fumigatus) [µg/mL],MIC (Candida parapsilosis) [µg/mL]
COC(=O)/C(C)=C/c1ccc(Oc2ccccc2N/C(=N/c2ccc(Cl)cc2)NCCCNc2ccnc3cc(Cl)ccc23)cc1,74.5,263,32.7,12.5,> 50,1.56,> 50,50,50,25,25,> 50,> 50
Clc1ccc(/N=C(\NCCCCNc2ccnc3cc(Cl)ccc23)Nc2ccccc2Oc2cc(Cl)ccc2Cl)cc1,654,151,11,> 50,> 50,> 50,> 50,> 50,> 50,> 50,> 50,> 50,> 50
Clc1ccc(Cl)c(Oc2ccccc2N/C(=N/c2ccccc2)NCCNc2ccnc3cc(Cl)ccc23)c1,42.5,95.8,173,25,> 50,12.5,50,50,> 50,50,25,> 50,50
Clc1cccc(/N=C(\NCCNc2ccnc3cc(Cl)ccc23)Nc2ccccc2Oc2cc(Cl)ccc2Cl)c1,69.6,422,56.2,6.25,> 50,1.56,> 50,50,> 50,50,50,> 50,50
Clc1ccc(Cl)c(Oc2ccc(N/C(=N/c3ccccc3)NCCNc3ccnc4cc(Cl)ccc34)cc2)c1,39.5,> 866,109,6.25,> 50,12.5,> 50,3.12,6.25,3.12,6.25,12.5,3.12
COC(=O)/C(C)=C/c1ccc(Oc2ccc(N/C(=N/c3ccc(Cl)cc3)NCCCCNc3ccnc4cc(Cl)ccc34)cc2)cc1,56.4,716,145,25,> 50,12.5,50,6.25,6.25,6.25,12.5,50,12.5
Clc1ccc(Cl)c(Oc2ccc(N/C(=N/c3ccccc3)NCCCCNc3ccnc4cc(Cl)ccc34)cc2)c1,307,> 826,29.9,12.5,> 50,12.5,25,12.5,25,25,25,25,12.5
Clc1cccc(/N=C(\NCCNc2ccnc3cc(Cl)ccc23)Nc2ccc(Oc3cc(Cl)ccc3Cl)cc2)c1,62.8,> 817,53.2,6.25,> 50,12.5,> 50,3.12,12.5,3.12,6.25,50,25
Clc1cccc(/N=C(\NCCCCNc2ccnc3cc(Cl)ccc23)Nc2ccccc2Oc2cc(Cl)ccc2Cl)c1,149,432,7.7,12.5,50,1.56,12.5,25,50,25,25,50,25
COC(=O)/C(C)=C/c1ccc(Oc2ccc(N/C(=N/c3cccc(Cl)c3)NCCCCNc3ccnc4cc(Cl)ccc34)cc2)cc1,51.9,66.8,47.9,12.5,> 50,3.12,50,> 50,> 50,50,50,> 50,> 50
